Reference: ChEMBL document CHEMBL1127905, “Design and synthesis of a prototype model antagonist of tachykinin NK-2 receptor” (Bioorg Med Chem Lett, 1994)

Target: T1, Substance-K receptor (Homo sapiens) (UniProt P21452)
T1 sequence (whole entry): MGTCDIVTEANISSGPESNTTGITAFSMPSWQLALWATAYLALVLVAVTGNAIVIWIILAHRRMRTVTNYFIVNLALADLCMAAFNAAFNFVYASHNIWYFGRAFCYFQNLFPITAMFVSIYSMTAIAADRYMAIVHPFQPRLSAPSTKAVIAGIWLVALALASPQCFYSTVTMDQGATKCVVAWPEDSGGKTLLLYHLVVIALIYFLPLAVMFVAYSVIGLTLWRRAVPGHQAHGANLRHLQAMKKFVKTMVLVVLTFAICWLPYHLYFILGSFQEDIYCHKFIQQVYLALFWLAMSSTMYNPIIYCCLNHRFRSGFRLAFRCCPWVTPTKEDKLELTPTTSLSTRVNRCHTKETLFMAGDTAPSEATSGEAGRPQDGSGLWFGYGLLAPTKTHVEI
Assay: Compound was evaluated for binding affinity to human recombinant Tachykinin receptor 2

**Q.** With O=C(Cc1c[nH]c2ccccc12)N[C@@H]1C(=O)N2[C@H](CC[C@H]2C(=O)NCc2ccccc2)C[C@H]1Cc1ccccc1 as the compound, how does the Activity read?
**A.** Its Activity is 3 µM.
